Molecules are shown by their SMILES.

For the first assay, the system named is LFCl2A. Kind of assay: In vitro cytotoxicity against LFCl2A (rat hepatocarcinoma) cells.
Settings: not given
The class given is functional, cell-based.
The term IC50 denotes the concentration that inhibits the measured activity by half. For the compound `O=c1[nH]cc(F)c(=O)[nH]1` [FLUOROURACIL], the IC50 came out at 28500 nM.

Staying with this assay, now noted: read-out: IC50.
In the case of `CC1=CCCCC1[C@H]1O[C@H](CO)C=CC1=O` (some centres undefined), the IC50 stood at 3500 nM.
Same read-out and setting: with `CCCCC/C=C\C/C=C\C/C=C\C/C=C\CCCC(=O)OC[C@H]1O[C@H](C2CCCC=C2C)C=CC1=O` (some centres undefined) the figure was 1 nM; with `CC/C=C\C/C=C\C/C=C\C/C=C\C/C=C\C/C=C\CCC(=O)OC[C@@H]1C=CC(=O)[C@@H](CC2=CCCCC2)O1`, 30000 nM.
Same read-out and setting: the figure for `CCCCCCCC/C=C\CCCCCCCC(=O)OC[C@H]1O[C@H](CC2=CCCCC2)C=CC1=O` is 80 nM.
For the compound `CCCCC/C=C\C/C=C\C/C=C\C/C=C\CCCC(=O)OC[C@@H]1C=CC(=O)[C@@H](CC2=CCCCC2)O1`, the IC50 was 35000 nM.
For `CC(=O)OC[C@H]1O[C@H](CC2=CCCCC2)C=CC1=O`, the IC50 amounted to 150 nM.
Still for that read-out and setting: the figure for `CC/C=C\C/C=C\C/C=C\C/C=C\C/C=C\C/C=C\CCC(=O)OC[C@H]1O[C@H](CC2=CCCCC2)C=CC1=O` is 50 nM; for `CCCC(=O)OC[C@H]1O[C@H](CC2=CCCCC2)C=CC1=O` it is 90 nM.
Take `CCCCC/C=C\C/C=C\C/C=C\C/C=C\CCCC(=O)OC[C@H]1O[C@H](CC2=CCCCC2)C=CC1=O`: the IC50 was determined as 7000 nM.
Take `CCCC(=O)OC[C@H]1O[C@H](C2CCCC=C2C)C=CC1=O` (some centres undefined): the IC50 was 350 nM.
On the same count and under the same terms, the figure for `O=C1C=C[C@@H](CC2=CCCCC2)O[C@@H]1CO` is 3000 nM; for `CCCCCCCC/C=C\CCCCCCCC(=O)OC[C@@H]1C=CC(=O)[C@@H](C2CCCC=C2C)O1` (some centres undefined) it is 35000 nM; for `CC(=O)OC[C@H]1O[C@H](C2CCCC=C2C)C=CC1=O` (some centres undefined) it is 700 nM.
Same read-out and setting: the figure for `CCCCCCCC/C=C\CCCCCCCC(=O)OC[C@H]1O[C@H](C2CCCC=C2C)C=CC1=O` (some centres undefined) is 50 nM; for `CC/C=C\C/C=C\C/C=C\C/C=C\C/C=C\C/C=C\CCC(=O)OC[C@H]1O[C@H](C2CCCC=C2C)C=CC1=O` (some centres undefined) it is 20 nM; for `O=C1C=C[C@@H](CO)O[C@@H]1CC1=CCCCC1` it is 9500 nM.
As for `CC/C=C\C/C=C\C/C=C\C/C=C\C/C=C\C/C=C\CCC(=O)OC[C@@H]1C=CC(=O)[C@@H](C2CCCC=C2C)O1` (some centres undefined), the IC50 was determined as 65000 nM.
Consider `CCCCC/C=C\C/C=C\C/C=C\C/C=C\CCCC(=O)OC[C@@H]1C=CC(=O)[C@@H](C2CCCC=C2C)O1` (some centres undefined), for which the IC50 is 5000 nM.
